Assay results as given in patent US9388208B2, “Pyrrolo[1,2-f][1,2,4]triazines useful for treating respiratory syncitial virus infections” (Gilead Sciences, Inc., priority 2013, dated 2016).
Like-named read-outs stand apart in the source and are kept apart here.

Experiments:
[1] = test system: RSV strain A2; test: Anti-RSV activity, infectious cytopathic cell protection assay in HEp-2 cells; format: cell-based, Respiratory Syncytial Virus (RSV); conditions: human respiratory syncytial virus
Description: Antiviral activity against RSV is determined using an infectious cytopathic cell protection assay in HEp-2 cells. In this assay, compounds inhibiting viral infection and/or replication produce a cytoprotective effect against the virus-induced cell killing that can be quantified using a cell viability reagent. The techniques used here are novel adaptations of methods described in published literature (Chapman et al., Antimicrob Agents Chemother. 2007, 51(9):3346-53.)
HEp-2 cells are obtained from ATCC (Manassas, VI) and maintained in MEM media supplemented with 10% fetal bovine serum and penicillin/streptomycin. Cells are passaged twice a week and kept at subconfluent stage. Commercial stock of RSV strain A2 (Advanced Biotechnologies, Columbia, Md.) is titered before compound testing to determine the appropriate dilution of the virus stock that generates desirable cytopathic effect in HEp-2 cells.
For antiviral tests, HEp-2 cells are grown in large cell culture flasks to near confluency but not fully so. The compounds to be tested are prediluted in DMSO in 384-well compound dilution plates, either in an 8 or 40 sample per plate standardized dose response format. 3-fold serial dilution increments of each test compound are prepared in the plates and test samples are transferred via acoustic transfer apparatus (Echo, Labcyte) at 100 nl per well into cell culture assay 384-well plates. Each compound dilution is transferred in single or quadruplicate samples into dry assay plates, which are stored until assay is ready to go. The positive and negative controls are laid out in opposite on ends of the plate in vertical blocks (1 column).
Subsequently, an infectious mixture is prepared using an appropriate dilution of virus stock previously determined by titration with cells at a density of 50,000/ml and 20 uL/well is added to test plates w/compounds via automation (uFlow, Biotek). Each plate includes negative and positive controls (16 replicates each) to create 0% and 100% virus inhibition standards, respectively. Following the infection with RSV, testing plates are incubated for 4 days in a 37° C. cell culture incubator. After the incubation, a cell viability reagent, Cell TiterGlo (Promega, Madison, Wis.) is added to the assay plates, which are incubated briefly, and a luminescent readout is measured (Envision, Perkin Elmer) in all the assay plates. The RSV-induced cytopathic effect, percentage inhibition, is determined from the levels of remaining cell viability. These numbers are calculated for each tested concentration relative to the 0% and 100% inhibition controls, and the EC50 value for each compound is determined by non-linear regression as a concentration inhibiting the RSV-induced cytopathic effect by 50%. Various potent anti-RSV tool compounds are used as positive controls for antiviral activity.

[2] = Cytotoxicity assay in HEp-2 cells; format: cell-based; conditions: human, uninfected HEp-2 cells, CellTiter Glo
Description: Cytotoxicity of tested compounds is determined in uninfected HEp-2 cells in parallel with the antiviral activity using the cell viability reagent in a similar fashion as described before for other cell types (Cihlar et al., Antimicrob Agents Chemother. 2008, 52(2):655-65.). The same protocol as for the determination of antiviral activity is used for the measurement of compound cytotoxicity except that the cells are not infected with RSV. Instead, an uninfected cell mixture at the same density is added at 20 ul/well to plates containing prediluted compounds, also at 100 nl/sample. Assay plates are then incubated for 4 days followed by a cell viability test using the same CellTiter Glo reagent addition and measurement of luminescent readouts. Untreated cell and cells treated at 2 uM puromycin (Sigma, St. Louis, Mo.) serve as 100% and 0% cell viability control, respectively. The percent of cell viability is calculated for each tested compound concentration relative to the 0% and 100% controls and the CC50 value is determined by non-linear regression as a compound concentration reducing the cell viability by 50%.

[3] = Cytotoxicity assay in MT-4 cells; format: cell-based; conditions: human, Cell-Titer Glo
Description: The MT-4 cell line was obtained from the NIH AIDS Research and Reference Reagent Program (Germantown, Md.) and cultured in RPMI-1640 medium (Irvine Scientific, Santa Ana, Calif., Cat #9160) supplemented with 10% FBS, 100 units/mL penicillin, 100 units/mL streptomycin, and 2 mM L-Glutamine. The MT-4 cells were passaged twice per week to maintain cell densities below 0.6×10^6 cells/mL. Complete RPMI-1640 media containing 100× concentrations of 3-fold serially diluted compound, ranging from 26 nM to 530 μM, were stamped in quadruplicate into black 384-well plates. After compound addition, 2×10^3 MT-4 cells were added to each well using a MicroFlo liquid dispenser (BioTek, Winooski, Vt.) and the cells were cultured for 5 days at 37° C. in a 5% CO2 incubator. Following the incubation the cells were allowed to equilibrate to 25° C. and cell viability was determined by adding 25 μL of Cell-Titer Glo viability reagent. The mixture was incubated for 10 minutes at 25° C., and the luminescence signal was quantified on a Victor Luminescence plate reader. The CC50 value is defined as the concentration of compound that reduces cell viability by 50% as determined by the Cell-Titer Glo signal. The data were analyzed using Pipeline Pilot Plate Data Analytics Collection software (Version 7.0, Accelrys, San Diego, Calif.). CC50 values were calculated from a non-linear regression analysis using a 4-parameter sigmoidal dose-response equation: Y=Bottom+(Top−Bottom)/(1+10^[(Log CC50−X)*HillSlope]) where the Top and Bottom were fixed at 100% and 0% cell viability, respectively. CC50 values were calculated as the average±standard deviation of 3 independent experiments.

[4] = 96 h, HEp-2 cells infected with RSV A2, 4 days, Cell TiterGlo, read-out: EC50
[5] = HEp-2 anti-RSV activity, read-out: EC50 (HEp-2 anti-RSV activity)

Row | Structure (SMILES) | EC50 [1, 4] [µM] | EC50 [1, 5] [µM] | CC50 at 4 days [2] [µM] | CC50 at 5 days [3] [µM] | EC50 ([1]; HEp-2, 96 h) [µM]
1 | CC[C@]1(CO)O[C@@H](c2ccc3c(N)ncnn23)[C@H](F)[C@@H]1O [Example 14, (2R,3R,4R,5S)-5-(4-aminopyrrolo[1,24][1,2,4]triazin-7-yl)-2-ethyl-4-fluoro-2-(hydroxymethyl)tetrahydrofuran-3-ol] | 40 | < 100 | > 100 | > 106 | –
2 | N#C[C@]1(CO)O[C@@H](c2cc(F)c3c(N)ncnn23)[C@H](F)[C@@H]1O [Example 23, (2R,3R,4R,5S)-5-(4-amino-5-fluoropyrrolo[2,1-f][1,2,4]triazin-7-yl)-4-fluoro-3-hydroxy-2-(hydroxymethyl)tetrahydrofuran-2-carbonitrile] | 23.5 | < 100 | 72 | 21 | –
3 | C=C[C@]1(CO)O[C@@H](c2ccc3c(N)ncnn23)[C@H](O)[C@@H]1O [Example 20, (2R,3S,4R,5S)-5-(4-aminopyrrolo[2,1-f][1,2,4]triazin-7-yl)-2-(hydroxymethyl)-2-vinyltetrahydrofuran-3,4-diol] | > 50 | – | > 50 | > 53 | –
4 | C[C@]1(CO)O[C@@H](c2ccc3c(N)ncnn23)[C@H](O)[C@@H]1O [Example 4, (2R,3S,4R,5S)-5-(4-aminopyrrolo[1,2-f][1,2,4]triazin-7-yl)-2-(hydroxymethyl)-2-methyltetrahydrofuran-3,4-diol] | 30 | – | > 50 | > 53 | –
5 | [N-]=[N+]=N[C@]1(CO)O[C@@H](c2cc(F)c3c(N)ncnn23)[C@H](F)[C@@H]1O [Example 21, (2R,3R,4R,5S)-5-(4-amino-5-fluoropyrrolo[2,1-f][1,2,4]triazin-7-yl)-2-azido-4-fluoro-2-(hydroxymethyl)tetrahydrofuran-3-ol] | 50 | < 100 | 36 | 15 | –
6 | Nc1ncnn2c([C@@H]3O[C@H](CO)[C@@H](O)[C@H]3F)ccc12 [(2R,3R,4R,5S)-5-(4-aminopyrrolo[1,2-f][1,2,4]triazin-7-yl)-4-fluoro-2-(hydroxymethyl)tetrahydrofuran-3-ol, reference compound] | > 100 | – | – | 30 | –
7 | CCC(CC)COC(=O)[C@H](C)NP(=O)(OC[C@@]1(N=[N+]=[N-])O[C@@H](c2ccc3c(N)ncnn23)[C@H](O)[C@@H]1O)Oc1ccccc1 (stereo partly drawn) [Example 16, (2S)-2-ethylbutyl 2-(((((2R,3S,4R,5S)-5-(4-aminopyrrolo[2,1-f][1,2,4]triazin-7-yl)-2-azido-3,4-dihydroxytetrahydrofuran-2-yl)methoxy)(phenoxy)phosphoryl)amino)propanoate] | – | – | 18 | 25 | 0.3
8 | CCC(CC)COC(=O)[C@H](C)NP(=O)(OC[C@@]1(C#N)O[C@@H](c2ccc3c(N)ncnn23)C(F)C1O)Oc1ccccc1 (stereo partly drawn) [Example 12, (2S)-2-ethylbutyl 2-((((2R,3R,4R,5S)-5-(4-aminopyrrolo[1,2-f][1,2,4]triazin-7-yl)-2-cyano-4-fluoro-3-hydroxytetrahydrofuran-2-yl)methoxy)(phenoxy)phosphorylamino)propanoate] | – | – | > 50 | 27 | 3
9 | Nc1ncnn2c([C@@H]3O[C@H](CO)[C@@H](O)[C@H]3O)ccc12 [(2S,3R,4S,5R)-2-(4-aminopyrrolo[1,2-t][1,2,4]triazin-7-yl)-5-(hydroxymethyl)tetrahydrofuran-3,4-diol, reference compound] | – | – | – | 0.007 | –
10 | N#C[C@]1(CO)O[C@@H](c2ccc3c(N)ncnn23)[C@H](F)[C@@H]1O [Example 3, (2R,3R,4R,5S)-5-(4-aminopyrrolo[1,24][1,2,4]triazin-7-yl)-4-fluoro-3-hydroxy-2-(hydroxymethyl)tetrahydrofuran-2-carbonitrile] | 2 | < 100 | > 100 | > 106 | –
11 | [N-]=[N+]=N[C@]1(CO)O[C@@H](c2ccc3c(N)ncnn23)[C@H](F)[C@@H]1O [Example 19, (2R,3R,4R,5S)-5-(4-aminopyrrolo[2,1-f][1,2,4]triazin-7-yl)-2-azido-4-fluoro-2-(hydroxymethyl)tetrahydrofuran-3-ol] | 0.4 | < 100 | > 44 | 16 | –
12 | C=C[C@]1(COP(=O)(OCCSC(=O)C(C)(C)C)OCCSC(=O)C(C)(C)C)O[C@@H](c2ccc3c(N)ncnn23)[C@H](F)[C@@H]1O [Example 15, S,S′-2,2′-((((2R,3R,4R,5S)-5-(4-aminopyrrolo[1,2-f][1,2,4]triazin-7-yl)-4-fluoro-3-hydroxy-2-vinyltetrahydrofuran-2-yl)methoxy)phosphoryl)bis(oxy)bis(ethane-2,1-diyl)bis(2,2-dimethylpropanethioate)] | – | – | 35 | 7.9 | 1.6
13 | C[C@]1(CO)O[C@@H](c2ccc3c(N)ncnn23)[C@H](F)[C@@H]1O [Example 24, (2R,3R,4R,5S)-5-(4-aminopyrrolo[2,1-f][1,2,4]triazin-7-yl)-4-fluoro-2-(hydroxymethyl)-2-methyltetrahydrofuran-3-ol] | 1 | < 100 | > 100 | 11 | –
14 | [N-]=[N+]=N[C@]1(CO)O[C@@H](c2ccc3c(N)ncnn23)[C@H](O)[C@@H]1O [Example 5, (2R,3S,4R,5S)-5-(4-aminopyrrolo[1,2-f][1,2,4]triazin-7-yl)-2-azido-2-(hydroxymethyl)tetrahydrofuran-3,4-diol] | 2.1 | – | > 50 | > 53 | –
15 | N#C[C@]1(CO)O[C@@H](c2cc(F)c3c(N)ncnn23)[C@H](O)[C@@H]1O [Example 25, (2R,3S,4R,5S)-5-(4-amino-5-fluoropyrrolo[2,1-f][1,2,4]triazin-7-yl)-3,4-dihydroxy-2-(hydroxymethyl)tetrahydrofuran-2-carbonitrile] | 9.2 | – | > 100 | > 93 | –
16 | C#C[C@]1(CO)O[C@@H](c2ccc3c(N)ncnn23)[C@H](F)[C@@H]1O [Example 2, (2R,3R,4R,5S)-5-(4-aminopyrrolo[1,2-f][1,2,4]triazin-7-yl)-2-ethynyl-4-fluoro-2-(hydroxymethyl)tetrahydrofuran-3-ol] | 9.6 | < 100 | > 100 | > 106 | –
